Source: US12344610B2, “APOL1 inhibitors and methods of use” (Maze Therapeutics, Inc., priority 2022, dated 2025)

What was measured:
Format in all cases: cell-based
[1] = biological target: T1, APOL1 G2 (Homo sapiens, UniProt O14791, DEL388-389); assay: APOL1-mediated calcium transport (calcium influx) assay, HEK T-REx/GCaMP6f/APOL1 G2 K6.3 cells, FLIPR TETRA; conditions: prevention of calcium influx; geometric mean of at least 2 assay runs; † = average of a technical replicate from a single assay run
T1 construct: expressed in transfected cells; host or cells: HEK293 T-REx clonal line stably expressing GCaMP6f (HEK T-REx/GCaMP6f/APOL1 G2 K6.3), doxycycline induced
T1 sequence (O14791 with tags, fused parts or gaps DEL388-389): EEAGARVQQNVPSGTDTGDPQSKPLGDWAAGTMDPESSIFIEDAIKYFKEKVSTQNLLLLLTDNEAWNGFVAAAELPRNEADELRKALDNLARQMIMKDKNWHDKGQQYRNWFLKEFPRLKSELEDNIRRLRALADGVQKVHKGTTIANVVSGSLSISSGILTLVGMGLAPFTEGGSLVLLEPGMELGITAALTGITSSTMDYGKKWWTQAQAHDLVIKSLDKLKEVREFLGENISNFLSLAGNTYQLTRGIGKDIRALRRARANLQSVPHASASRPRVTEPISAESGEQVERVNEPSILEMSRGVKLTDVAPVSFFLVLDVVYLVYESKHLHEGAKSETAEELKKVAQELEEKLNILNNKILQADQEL
How it was run: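 A HEK293 T-REx clone stably expressing GCaMP6f had APOL1 G2 induced with doxycycline (20 ng/mL solution added) for 6 h. Cells were then washed into Ca2+-free Tyrode's buffer (pH 7.4) and preincubated with compounds (duplicate 8-point) for 10 min at room temperature. Ca2+ injection to 5 mM final produced FLIPR GCaMP fluorescence, giving AC50 for influx inhibition (geometric mean, ≥2 runs).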

[2] = tested on: HEK293 cells overexpressing APOL1 G2; assay: APOL1 G2 HEK293 cell rescue assay (reversal of cell death caused by overexpression of APOL1); conditions: Homo sapiens, HEK293, HEK293 overexpressing APOL1 G2; geometric mean of at least 2 assay runs; † = single assay run
How it was run: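 Each compound tested in duplicate wells on one plate per run, with values usually the geometric mean across at least two runs on different days, occasionally from one run only. Read-out: concentration giving half-maximal rescue of APOL1 G2 overexpression-induced death of HEK293 cells.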

[3] = tested on: HEK293 clonal cell line overexpressing APOL1 G1; assay: APOL1 G1 HEK293 cell rescue assay (Example B3); conditions: Homo sapiens, HEK293, HEK293 clonal line overexpressing APOL1 G1; geometric mean of at least 2 runs; † = single run; ¥ = concentration at 50% rescue estimated (no sigmoidal curve)
How it was run: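 Rescue of cell death caused by APOL1 G1 overexpression was measured in a clonal HEK293 line. Compounds were tested in duplicate on one plate, and EC50s were geometric means across at least two runs on different days. Some values are estimated 50%-rescue concentrations where curve fitting failed.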

| Compound | AC50 [1] [µM] | EC50 [2] [µM] | EC50 [3] [µM] |
| --- | --- | --- | --- |
| [2H]C([2H])([2H])N1C(=O)C2(CCN(CCOc3cnc(C4(S(C)(=O)=O)CC4)nc3)CC2)c2cc(Cl)ccc21 [Compound 424, 5-chloro-1′-(2-{[2-(1-methanesulfonylcyclopropyl)pyrimidin-5-yl]oxy}ethyl)-1-(^2H3)methyl-1,2-dihydrospiro[indole-3,4′-piperidin]-2-one] | 0.895 | 0.0502 | 0.112 |
| [2H]C([2H])([2H])N1C(=O)C2(CCN(CCOc3cnc(C(C)S(C)(=O)=O)nc3)CC2)c2cc(Cl)ccc21 (stereo not drawn) [Compound 425, 5-chloro-1′-(2-{[2-(1-methanesulfonylethyl)pyrimidin-5-yl]oxy}ethyl)-1-(^2H3)methyl-1,2-dihydrospiro[indole-3,4′-piperidin]-2-one] | 1.1 | 0.0906 | 0.271 |
| O=C1Nc2ccc(Cl)cc2C12CCN(CCOc1cnc(C3(O)COC3)nc1)CC2 [Compound 429, 5-chloro-1′-(2-{[2-(3-hydroxyoxetan-3-yl)pyrimidin-5-yl]oxy}ethyl)-1,2-dihydrospiro[indole-3,4′-piperidin]-2-one] | 0.435 | 0.13 | 0.2 |
| O=C1Nc2ccc(Cl)cc2C12CCN(CCOc1cnc(C3(O)CCC3)nc1)CC2 [Compound 430, 5-chloro-1′-(2-{[2-(1-hydroxycyclobutyl)pyrimidin-5-yl]oxy}ethyl)-1,2-dihydrospiro[indole-3,4′-piperidin]-2-one] | 0.518 | 0.0729 | 0.123 |
| CC1(O)CN(c2ncc(OCCN3CCC4(CC3)C(=O)Nc3ccc(C#N)cc34)cc2C(F)(F)F)C1 [Compound 431, 1′-(2-{[6-(3-hydroxy-3-methylazetidin-1-yl)-5-(trifluoromethyl)pyridin-3-yl]oxy}ethyl)-2-oxo-1,2-dihydrospiro[indole-3,4′-piperidine]-5-carbonitrile] | 4.87 | 0.0187 | 0.037 |
| CC(C)(CO)c1ncc(OCCN2CCC3(CC2)C(=O)Nc2ccc(C#N)cc23)cn1 [Compound 432, 1′-(2-{[2-(1-hydroxy-2-methylpropan-2-yl)pyrimidin-5-yl]oxy}ethyl)-2-oxo-1,2-dihydrospiro[indole-3,4′-piperidine]-5-carbonitrile] | 2.56 | 0.161 | 0.288 |
| C[C@]1(O)C[C@@H](n2cnc3cc(OCCN4CCC5(CC4)C(=O)Nc4ccc(Cl)cc45)cc(C(F)F)c32)C1 [Compound 445, 5-chloro-1′-(2-{[7-(difluoromethyl)-1-[(cis)-3-hydroxy-3-methylcyclobutyl]-1H-1,3-benzodiazol-5-yl]oxy}ethyl)-1,2-dihydrospiro[indole-3,4′-piperidin]-2-one] | 1.11 | 0.00815 | 0.0294 |
| C[C@]1(O)C[C@@H](n2cnc3cc(OCCN4CCC5(CC4)C(=O)Nc4ccc(C#N)cc45)cc(C(F)F)c32)C1 [Compound 446, 1′-(2-{[7-(difluoromethyl)-1-[(cis)-3-hydroxy-3-methylcyclobutyl]-1H-1,3-benzodiazol-5-yl]oxy}ethyl)-2-oxo-1,2-dihydrospiro[indole-3,4′-piperidine]-5-carbonitrile] | 1.18 | 0.0332 | 0.0825 |
| C[C@]1(O)C[C@@H](n2cnc3cc(OCCN4CCC5(CC4)C(=O)Nc4ccc(Cl)cc45)cc(OC(F)F)c32)C1 [Compound 447, 5-chloro-1′-(2-{[7-(difluoromethoxy)-1-[(cis)-3-hydroxy-3-methylcyclobutyl]-1H-1,3-benzodiazol-5-yl]oxy}ethyl)-1,2-dihydrospiro[indole-3,4′-piperidin]-2-one] | 1.13 | 0.0341 | 0.0643 |
| C[C@]1(O)C[C@@H](n2cnc3cc(OCCN4CCC5(CC4)C(=O)Nc4ccc(C#N)cc45)cc(OC(F)F)c32)C1 [Compound 448, 1′-(2-{[7-(difluoromethoxy)-1-[(cis)-3-hydroxy-3-methylcyclobutyl]-1H-1,3-benzodiazol-5-yl]oxy}ethyl)-2-oxo-1,2-dihydrospiro[indole-3,4′-piperidine]-5-carbonitrile] | 1.14 | 0.112 | 0.687 |
| CC(C)(O)c1ncc(OCCN2CCC3(CC2)C(=O)Nc2c(I)cc(Cl)cc23)cn1 [Compound 449, 5-chloro-1′-(2-((2-(2-hydroxypropan-2-yl)pyrimidin-5-yl)oxy)ethyl)-7-iodospiro[indoline-3,4′-piperidin]-2-one] | 0.609 | 0.102 | 0.247 |
| Cc1nc2cc(OCCN3CCC4(CC3)C(=O)Nc3ccc(Cl)cc34)cnc2n1[C@H]1C[C@@](C)(O)C1 [Compound 451, 5-chloro-1′-[2-({2-methyl-3-[(cis)-3-hydroxy-3-methylcyclobutyl]-3H-imidazo[4,5-b]pyridin-6-yl}oxy)ethyl]-1,2-dihydrospiro[indole-3,4′-piperidin]-2-one] | 0.459 | 0.0321 | 0.115 |
| C[C@]1(O)C[C@@H](N2C(=O)NCc3cc(OCCN4CCC5(CC4)C(=O)Nc4ccc(Cl)cc45)cc(C(F)(F)F)c32)C1 [Compound 456, 5-chloro-1′-[2-({2-oxo-1-[(cis)-3-hydroxy-3-methylcyclobutyl]-8-(trifluoromethyl)-1,2,3,4-tetrahydroquinazolin-6-yl}oxy)ethyl]-1,2-dihydrospiro[indole-3,4′-piperidin]-2-one] | 1.01 | 0.0282 | 0.0982 |
| CC1(C)OC(=O)c2cc(OCCN3CCC4(CC3)C(=O)Nc3ccc(Cl)cc34)cnc21 [Compound 458, 5-chloro-1′-[2-({7,7-dimethyl-5-oxo-5H,7H-furo[3,4-b]pyridin-3-yl}oxy)ethyl]-1,2-dihydrospiro[indole-3,4′-piperidin]-2-one] | 0.528 | 0.0165 | 0.0757 |
| [2H]C([2H])(Oc1cnc2c(c1)CCC(=O)N2[C@H]1C[C@](O)(C([2H])([2H])[2H])C1)C([2H])([2H])N1CCC2(CC1)C(=O)Nc1ccc(Cl)cc12 [Compound 462, 5-chloro-1′-[2-({7-oxo-8-[(cis)-3-hydroxy-3-(^2H3)methylcyclobutyl]-5,6,7,8-tetrahydro-1,8-naphthyridin-3-yl}oxy)(1,1,2,2-^2H4)ethyl]-1,2-dihydrospiro[indole-3,4′-piperidin]-2-one] | 0.943 | 0.0178 | 0.0534 |
| [2H]C([2H])(Oc1cc(C(F)(F)F)c2c(c1)ncn2[C@H]1C[C@@](C)(O)C1)C([2H])([2H])N1CCC2(CC1)C(=O)Nc1ccc(Cl)cc12 [Compound 463, 5-chloro-1′-[2-({1-[(cis)-3-hydroxy-3-methylcyclobutyl]-7-(trifluoromethyl)-1H-1,3-benzodiazol-5-yl}oxy)(1,1,2,2-^2H4)ethyl]-1,2-dihydrospiro[indole-3,4′-piperidin]-2-one] | 2.84 | 0.00584 | 0.0132 |
